Reference: patent publication US8618169B2, “Derivatives of N-phenylanthranilic acid and 2-benzimidazolone as potassium channel and/or neuron activity modulators” (Ramot at Tel-Aviv University Ltd., priority 2002, dated 2013)
“And” between values parts separate entries of the source, which are not always exact repeats. Identical values can stand only once.

Legend:
[1] = system: electroshock-induced seizures; experiment: Maximal electroshock seizure (MES) test in ICR mice; format: in vivo
Procedure: All animals were treated in accordance with the Guide for the Care and Use of Laboratory Animals as adopted and promulgated by the U.S. National Institutes of Health. The procedures followed for experimentation and maintenance of the animals were approved by the animal research ethics committee of Tel Aviv University and in accordance with the Guide for the Care and Use of Laboratory Animals (1996. National Academy of Sciences, Washington D.C). […] electroshock were induced in adult mice by means of two transcorneal electrodes delivering an alternative current of 50 mA at 60 Hz for 0.2 sec using rodent shocker (Hugo Sachs Electronik, type 221). […] The tested compounds were dissolved in 0.9% saline were administered intraperitoneally either 30 minutes or 2 hours before the electroshock was performed. Animals failing to show tonic hind limb extension were scored as protected and were expressed in percentage.
Five groups of 10 ICR mice each received intraperitoneally saline (control) or meclofenamic acid (Compound 1) at 25 mg/kg, 50 mg/kg, 100 mg/kg and 150 mg/kg and were subjected 30 minutes later to an electric shock (50 mA, 0.2 second duration, 60 Hz).
In view of the strong depressing activity of Compound 6 on cortical neurons, the anticonvulsant activity in mice subjected to seizures produced by electroshock was examined, using the MES test described above. Compound 6 dissolved in saline was injected intraperitoneally (in a volume of 10 ml/kg) at doses ranging from 6 mg/kg to 20 mg/kg to ICR adult mice and its anticonvulsant activity was compared with saline. Twenty minutes after drug administration, seizures were produced by electroshock (50 mA, 0.2 second duration, 60 Hz).

M-current = molecular target: T1, M-current (Rattus norvegicus, UniProt O88943+O88944); experiment: Native M-current of cultured rat cortical neurons, voltage-clamp; format: cell-based
T1 construct: the native M-current from pyramidal-like neurons was recorded; endogenous in cells; host or cells: primary cortical neurons from Sprague Dawley rat embryos (E18)

KCNQ1/KCNE1 = molecular target: T2, KCNQ1/KCNE1 (Homo sapiens, UniProt P51787); experiment: KCNQ1/KCNE1 (IKS) current amplitude; format: cell-based; settings: 50 μM, test potentials −50 to 0 mV, data not shown
T2 construct: expressed in transfected cells; host or cells: Xenopus oocytes (stated for Compound 6)
Procedure: Briefly, two-electrode voltage-clamp measurements were performed 3-5 days following cRNA microinjection into oocytes. Oocytes were bathed in a modified ND96 solution containing (in mM): 96 NaCl, 2 KCl, 1 MgCl2, 0.1 CaCl2 and 5 HEPES titrated to pH=7.4 with NaOH. Whole-cell currents were recorded at room temperature (20° C.-22° C.) using a GeneClamp 500 amplifier (Axon Instruments, Foster City, Calif., USA). […] Current signals were filtered at 0.5 kHz and digitized at 2 kHz.
The current amplitude of the various channels was measured from a −80 mV holding potential.

rat cortical neurons = experiment: Evoked and spontaneous action potential activity of cultured rat cortical neurons, current-clamp; format: cell-based
KCNQ2/Q3 = KCNQ2/Q3 (Homo sapiens, UniProt O43525+O43526); experiment: KCNQ2/Q3 current in Xenopus oocytes, two-electrode voltage-clamp; format: cell-based; design: expressed in transfected cells; host or cells: Xenopus oocytes (cRNA microinjection); settings: for increase of KCNQ2/Q3 currents: at −40 mV
Procedure: Current measurements in Xenopus oocytes were performed as described in the art [Peretz et al. J. Physiol 545:751-766 (2002)]. Briefly, two-electrode voltage-clamp measurements were performed 3-5 days following cRNA microinjection into oocytes. Oocytes were bathed in a modified ND96 solution containing (in mM): 96 NaCl, 2 KCl, 1 MgCl2, 0.1 CaCl2 and 5 HEPES titrated to pH=7.4 with NaOH. Whole-cell currents were recorded at room temperature (20° C.-22° C.) using a GeneClamp 500 amplifier (Axon Instruments, Foster City, Calif., USA). Glass microelectrodes (A-M Systems, Inc., Carlsborg, Wis., USA) were filled with 3M KCl and had tip resistances of 0.5-1.5 MΩ. Stimulation of the preparation, data acquisition and analyses were performed using the pCLAMP 6.02 software (Axon Instruments, Foster City, Calif., USA) and a 586 personal computer Pentium 4 interfaced with a Digidata 1200 interface (Axon Instruments, Foster City, Calif., USA). Current signals were filtered at 0.5 kHz and digitized at 2 kHz.
Data analysis was performed using the Clampfit program (pClamp 8.1, Axon Instruments, Foster City, Calif., USA), Microsoft Excel 98 (Microsoft Corp., Redmond, Wash., USA), Axograph 4.6 (Axon Instruments, Foster City, Calif., USA) and Prism 2.0 (GraphPad, San Diego, Calif., USA). Leak subtraction was performed off-line, using the Clampfit program of the pClamp 8.1 software. To analyze the KCNQ2/3 channel deactivation, a single exponential fit was applied to the tail currents. Chord conductance (G) was calculated by using the equation: G=I/(V−Vrev) where I corresponds to the current amplitude measured at the end of the pulse and Vrev, the calculated reversal potential assumed to be −90 mV in CHO cells and −98 mV in Xenopus oocytes. G was estimated at various test voltages V and then, normalized to a maximal conductance value, Gmax, calculated at +40 mV. Activation curves were fitted by a Boltzmann distribution: G/Gmax=1/{1+exp[(V50−V)/s]} where V50 is the voltage at which the current is half-activated and s is the slope factor. All data were expressed as mean±SEM. Statistically significant differences were assessed by Student's t-test.
Data are expressed as mean±SEM of 5-8 separate experiments.

KCNQ2/3 channels = molecular target: T3, KCNQ2/3 channels (Homo sapiens, UniProt O43525+O43526); experiment: KCNQ2/3 current in transfected CHO cells, whole-cell patch-clamp; format: cell-based
T3 construct: expressed in transfected cells; host or cells: CHO cells

[2] = 100 μM, prepulse −20 mV, tail −60 mV

`Cc1ccc(Cl)c(Nc2ccccc2C(=O)O)c1Cl` [Compound 1, Meclofenamic acid] was tested, and the “% Protection” value ([1]; 50 mg/kg i.p., 30 minutes before electroshock) was 17% and 17 (6) %, the “% Protection” value ([1]; 100 mg/kg i.p., 30 minutes before electroshock) was 75 (5) % and the “% Protection” value ([1]; 100 mg/kg i.p., 2 hours before electroshock) was 25 (4) %. For the same molecule, the “adverse effect in mice” value ([1]; 150 mg/kg intraperitoneally) was “sedation”, the “% Protection” value ([1]; 200 mg/kg i.p., 30 minutes before electroshock) was “toxic” and the “% Protection” value ([1]; 200 mg/kg i.p., 2 hours before electroshock) was “toxic”. The “mice protected from electroshock” value ([1]; Example 9: 50 mg/kg intraperitoneally, 30 minutes before shock) was 50%, the “protection from electroshock seizures” value ([1]; Example 9: 100 mg/kg intraperitoneally, 30 minutes before shock) was “fully prevented seizures” and the “toxic effects at high doses” value ([1]; mouse, in vivo) was “pro-convulsive toxic effects and hyperactivity”. The “enhancement of the linopirdine-sensitive outward current” value (M-current; 10 μM, step from −80 mV to −40 mV) was 465±134 percents of control, the “effect on heteromeric KCNQ1/KCNE1 currents” value (KCNQ1/KCNE1) was “not enhanced” and the “effect on spontaneous spiking activity” value (rat cortical neurons; 10 μM) was “completely but reversibly inhibited”. The “number of evoked action potentials with compound” value (rat cortical neurons; 10 μM, 100 pA depolarizing current for 800 mseconds, control 20±1) was 1±1, the “effect on evoked potentials” value (rat cortical neurons; 5-20 μM) was “reversibly inhibited” and the “leftward shift in the voltage-dependence of KCNQ2/Q3 current activation” value (KCNQ2/Q3; 25 μM, Xenopus oocytes) was −15.9 mV. The “V50 of KCNQ2/Q3 current activation with compound” value (KCNQ2/Q3; 25 μM, Xenopus oocytes, control −28.6±2.9 mV) was −44.5±3.1 mV, the “increase of KCNQ2/Q3 currents” value (KCNQ2/Q3; 25 μM) was 1.75 fold and the “increase in KCNQ2/Q3 current amplitude” value (KCNQ2/Q3; 25 μM, oocyte membrane stepped from −80 mV to −40 mV) was 53±8%. The “oocyte resting membrane potential after compound” value (KCNQ2/Q3; increasing concentrations, from −56±2 mV) was −72±3 mV, the EC50 (KCNQ2/Q3; increasing concentrations, read-out: EC50 of hyperpolarization of the oocyte resting membrane potential) was 11.7 ± 5.2 µM and the “V50 of KCNQ2/3 current activation with compound” value (KCNQ2/3 channels; 100 μM, CHO cells) was −42.34±2.08 mV. For the same molecule, the “leftward shift in the voltage-dependence of KCNQ2/3 current activation” value (KCNQ2/3 channels; 100 μM, CHO cells) was 22.7 mV, the “slope parameter s of the Boltzmann fitting curve” value (KCNQ2/3 channels; 100 μM, CHO cells) was −10.50±0.93 mV/e fold and the “increase of the time constant for deactivation” value (KCNQ2/3 channels; [2]) was “about 2 fold”. The “time constant for deactivation τdeact with compound” value (KCNQ2/3 channels; [2]) was 167.5 ± 11.6 ms, the “effect on KCNQ2/3 activation kinetics” value (KCNQ2/3 channels; CHO cells) was “did not affect” and the “voltage threshold of KCNQ2/3 current activation upon exposure” value (KCNQ2/3 channels; CHO cells, control −50 mV) was “about −60 mV”. The “increase of KCNQ2/3 current amplitude” value (KCNQ2/3 channels; at −30 mV, CHO cells) was over 2.5 fold, the “increase of KCNQ2/3 current amplitude” value (KCNQ2/3 channels; at −40 mV, CHO cells) was over 5 fold and the “increase of KCNQ2/3 current amplitude” value (KCNQ2/3 channels; at −50 mV, CHO cells) was “more than 10 fold”. The “increase in KCNQ2/3 current amplitude” value (KCNQ2/3 channels; potentials around −60/−50 mV) was “more than 10 fold”, the “increase of the current amplitude” value (KCNQ2/3 channels; train protocol, cells stepped to −20 mV) was “up to 72%” and the “KCNQ2/3 current amplitude with compound” value (KCNQ2/3 channels; train protocol, stepped to −20 mV, control 844±130 pA) was 1451±164 pA.

For `O=C(Cc1ccccc1Nc1c(Cl)cccc1Cl)NCCOCCO` [Compound 6], the ED50 ([1]; Mus musculus, intraperitoneal 6-20 mg/kg, twenty minutes before electroshock, read-out: ED50 of protective effect against seizures) was 8.7 mg/kg, the “negative shift in the threshold of M-current activation” value (M-current; cortical neurons, from −50 mV to −70 mV) was “approximately 20 mV” and the “effect on evoked and spontaneous cortical neuron activity” value (rat cortical neurons) was “depress”. The “effect on spontaneous action potentials” value (rat cortical neurons; 5 μM-20 μM, within less than 2 minutes) was “profound depression of spontaneous action potentials”, the “effect on number of evoked action potentials” value (rat cortical neurons; 10 μM) was “reduced drastically and reversibly” and the “increase of KCNQ2/Q3 currents” value (KCNQ2/Q3; 25 μM) was 1.95 fold. For the same molecule, the “leftward shift in the voltage-dependence of KCNQ2/3 activation” value (KCNQ2/3 channels; 25 μM, CHO cells) was “about 13 mV”, the “V50 of KCNQ2/3 activation with compound” value (KCNQ2/3 channels; 25 μM, CHO cells, control −30.9±4.1 mV) was −43.45±2.3 mV and the “increase of the current amplitude” value (KCNQ2/3 channels; 25 μM, train protocol, stepped to −50 mV) was “up to 220%”. The “effect on deactivation kinetics of KCNQ2/3 channels” value (KCNQ2/3 channels; CHO cells) was “slowed down” and the EC50 (KCNQ2/3 channels; at −50 mV, CHO cells, read-out: EC50 of concentration-dependent current increase) was 7 ± 1 µM.
